# Test results taken from patent publication US5595998A, “Pyrazoloquinolines” (priority 1994, dated 1997).
# Tested on: ras p21 protein
# Experiment: Ras p21 Nucleotide Exchange Assay (inhibition of ^3H-GDP binding to p21 ras)
# Assay type: biochemical
# Conditions: 50 μM
# Protocol: Ras p21 Nucleotide Exchange Assay
# The conditions for assay of nucleotide exchange inhibitors was adapted from Hall, A. and A. J. Self. 1986 J. Biol. Chem. 261: 10963-10965, which is hereby incorporated by reference.
# 0.5 μM ras p21 protein was incubated in 50 μls exhange buffer (50 mM Tris-HCl pH 7.5, 5 mM MgCl2, 50 mM NaCl and […]) on ice. Compounds dissolved in dimethyl sulfoxide (DMSO) were added to the desired concentration such that the final concentration of DMSO in the reaction mixture was 2% by weight. The reaction was incubated for 5 minutes on ice and then ^3 H-GDP (final concentration was 0.25 μM) was added.
# Biological data are given throughout the specification in one of two forms: either as per cent inhibitions, or as the concentration at which the test compound causes 50% inhibition (IC50) of the binding of ^3 H-GDP to the p21 ras protein.
# When the above assay was run at one concentration of the test compound, then the data was given as per cent inhibition at a particular concentration. […] When the assay was run at a series of concentrations, then the data were given as IC50 's.
row,Structure (SMILES),ras p21 Assay (per cent inhibition) [%]
1,COc1ccc2nc3nn([C@@H]4O[C@H](COC(=O)c5ccccc5)[C@@H](OC(=O)c5ccccc5)[C@@H]4OCc4ccccc4)c(C)c3c(Cl)c2c1,32

# Same assay, conditions: 100 μM
row,Structure (SMILES),inhibition in the ras p21 assay [%]
1,COc1ccc2nc3c(c(C)nn3[C@@H]3O[C@H](COC(=O)c4ccccc4)[C@H]4OC(C)(C)O[C@H]43)c(OCCN(C)C)c2c1,59
2,COc1ccc2nc3c(c(C)nn3[C@@H]3O[C@H](COC(=O)c4ccccc4)[C@@H](OC(=O)c4ccccc4)[C@H]3OC(=O)c3ccccc3)c(OCCN(C)C)c2c1,12
3,COc1ccc2nc3c(c(C)nn3[C@@H]3O[C@H](COC(=O)c4ccccc4)[C@@H](OC(=O)c4ccccc4)[C@H]3OC(=O)c3ccccc3)c(NCCN3CCOCC3)c2c1,86

# Same assay, conditions: read-out: IC50 in the ras p21 assay
row,Structure (SMILES),IC50 [µM]
1,COc1ccc2nc3c(cc2c1)c(C)nn3[C@@H]1O[C@H](COC(=O)c2ccccc2)[C@@H](O)[C@H]1O,50
2,Cc1nn([C@@H]2O[C@H](COC(=O)c3ccccc3)[C@@H](OC(=O)c3ccccc3)[C@H]2OC(=O)c2ccccc2)c2nc3ccc(O)cc3c(Cl)c12,10
3,COc1ccc2nc3c(c(C)nn3[C@@H]3O[C@H](C(O)CC(=O)c4ccccc4)[C@H]4OC(=S)O[C@H]43)c(Cl)c2c1 (stereo partly shown) [Compound U],1.5

# Same assay, conditions: table 1; at (100), unit not given
row,Structure (SMILES),Ras p21 Assay (per cent inhibition) [%]
1,COc1ccc2nc3nn([C@@H]4O[C@H](COC(=O)c5ccccc5)[C@H]5OC(=S)O[C@H]54)c(C)c3c(Cl)c2c1 [Cl O(CO)Ph OC(S)O],86
2,COc1ccc2nc3nn([C@@H]4O[C@H](COC(=O)c5ccccc5)[C@@H](OC(C)=O)[C@H]4OC(C)=O)c(C)c3c(Cl)c2c1 [Cl O(CO)Ph OCOCH3 OCOCH3],20
3,COc1ccc2nc3nn([C@@H]4O[C@H](COC(=O)c5ccccc5)[C@@H](O)[C@H]4O)c(C)c3c(Cl)c2c1 [Cl O(CO)Ph OH OH],49
4,COc1ccc2nc3nn([C@@H]4O[C@H](CO)[C@@H](O)[C@H]4O)c(C)c3c(Cl)c2c1 [Cl OH OH OH],0
5,COc1ccc2nc3nn([C@@H]4O[C@H](CO)[C@@H](O)[C@H]4O)c(C)c3c(O)c2c1 [OH OH OH OH],49

# Same assay, conditions: table 1; concentration causing 50% inhibition of ^3H-GDP binding; read-out: Ras p21 Assay (IC50)
row,Structure (SMILES),IC50 [µM]
1,COc1ccc2nc3nn([C@@H]4O[C@H](COC(=O)c5ccccc5)[C@@H](OC(=O)c5ccccc5)[C@H]4OC(=O)c4ccccc4)c(C)c3c(Cl)c2c1 [Cl O(CO)Ph O(CO)Ph O(CO)Ph],10
2,COc1ccc2nc3nn([C@@H]4O[C@H](COC(=O)c5ccccc5)[C@@H](OC(=O)c5ccccc5)[C@H]4OC(=O)c4ccccc4)c(C)c3cc2c1 [H O(CO)Ph O(CO)Ph O(CO)Ph],8
3,COc1ccc2nc3nn([C@@H]4O[C@H](COC(=O)c5ccccc5)[C@@H](OC(=O)c5ccccc5)[C@H]4OC(=O)c4ccccc4)c(C)c3c(O)c2c1 [OH O(CO)Ph O(CO)Ph O(CO)Ph],10

# Same assay, conditions: table 2; 50 μM
row,Structure (SMILES),ras p21 Assay (per cent inhibition) [%]
1,COc1ccc2nc3c(c(C)nn3[C@@H]3O[C@H](COC(=O)CC(C)C)[C@@H](OC(=O)CC(C)C)[C@H]3OC(=O)CC(C)C)c(Cl)c2c1,33
2,COc1ccc2nc3c(c(C)nn3[C@@H]3O[C@H](CN)[C@H]4OC(C)(C)O[C@H]43)c(Cl)c2c1 [NH2 OC(CH3)2 O],38
3,COc1ccc2nc3c(c(C)nn3[C@@H]3O[C@H](COC(=O)c4ccoc4)[C@@H](OC(=O)c4ccoc4)[C@H]3OC(=O)c3ccoc3)c(Cl)c2c1 [O(CO)-3-Fu O(CO)-3-Fu O(CO)-3-Fu],49
4,COc1ccc2nc3c(c(C)nn3[C@@H]3O[C@H](CNC(=O)c4ccccc4)[C@H]4OC(C)(C)O[C@H]43)c(Cl)c2c1 [O(CO)PhNH OC(CH3)2 O],56
5,COc1ccc2nc3c(c(C)nn3[C@@H]3O[C@H](CNC(=O)c4ccccc4)[C@@H](O)[C@H]3O)c(Cl)c2c1 [O(CO)PhNH OH OH],24
6,COc1ccc2nc3c(c(C)nn3[C@@H]3O[C@H](COC(=O)c4cccnc4)[C@@H](OC(=O)c4cccnc4)[C@H]3OC(=O)c3cccnc3)c(Cl)c2c1 [O(CO)Py O(CO)Py O(CO)Py],33

# Same assay, conditions: table 2; 100 μM
row,Structure (SMILES),ras p21 Assay (per cent inhibition) [%]
1,COc1ccc2nc3c(c(C)nn3[C@@H]3O[C@H](COC(=O)c4cc(C)ccc4C)[C@@H](OC(=O)c4cc(C)ccc4C)[C@H]3OC(=O)c3cc(C)ccc3C)c(Cl)c2c1,37
2,COc1ccc(C(=O)OC[C@H]2O[C@@H](n3nc(C)c4c(Cl)c5cc(OC)ccc5nc43)[C@H](OC(=O)c3ccc(OC)cc3)[C@@H]2OC(=O)c2ccc(OC)cc2)cc1,44
3,COc1ccc2nc3c(c(C)nn3[C@@H]3O[C@H](COCc4ccccc4)[C@@H](OCc4ccccc4)[C@H]3OCc3ccccc3)c(Cl)c2c1 [CH2 Ph CH2 Ph CH2 Ph],35
4,COc1ccc2nc3c(c(C)nn3[C@@H]3O[C@H](COC(=O)Cc4ccccc4)[C@@H](OC(=O)Cc4ccccc4)[C@H]3OC(=O)Cc3ccccc3)c(Cl)c2c1 [O(CO)CH2 Ph (CO)CH2 Ph O(CO)CH2 Ph],62
5,COc1ccc2nc3c(c(C)nn3[C@@H]3O[C@H](COC(=O)c4ccccc4)[C@@H](OCc4ccccc4)[C@H]3OCc3ccccc3)c(Cl)c2c1 [O(CO)Ph CH2 Ph CH2 Ph],53
6,COc1ccc2nc3c(c(C)nn3[C@@H]3O[C@H](COC(=O)c4ccccc4)[C@@H](OC(C)=O)[C@H]3OC(C)=O)c(Cl)c2c1 [O(CO)Ph O(CO)CH3 O(CO)CH3],44
7,COc1ccc2nc3c(c(C)nn3[C@@H]3O[C@H](COC(=O)c4ccccc4)[C@H]4OC(c5ccccc5)O[C@H]43)c(Cl)c2c1 (stereo partly shown) [O(CO)Ph OC(Ph)O],41
8,COc1ccc2nc3c(c(C)nn3[C@@H]3O[C@H](COC(=O)c4ccccc4)[C@@H](O)[C@H]3O)c(Cl)c2c1 [O(CO)Ph OH OH],16
9,COc1ccc2nc3c(c(C)nn3[C@@H]3O[C@H](COC(=O)c4ccc([N+](=O)[O-])cc4)[C@@H](OC(=O)c4ccc([N+](=O)[O-])cc4)[C@H]3OC(=O)c3ccc([N+](=O)[O-])cc3)c(Cl)c2c1 [O(CO)Ph-4-NO2 (CO)Ph-4-NO2 O(CO)Ph-4-NO2],59
10,COc1ccc2nc3c(c(C)nn3[C@@H]3O[C@H](COC(C)=O)[C@@H](OC(C)=O)[C@H]3OC(C)=O)c(Cl)c2c1 [OCOCH3 O(CO)CH3 O(CO)CH3],3
11,COc1ccc2nc3c(c(C)nn3[C@@H]3O[C@H](CO)[C@H]4OC(C)(C)O[C@H]43)c(Cl)c2c1 [OH OC(CH3)2 O],11

# Same assay, conditions: table 2; concentration causing 50% inhibition of ^3H-GDP binding; read-out: ras p21 Assay (IC50)
row,Structure (SMILES),IC50 [µM]
1,COc1ccc2nc3c(c(C)nn3[C@@H]3O[C@H](COC(=O)c4ccccc4)[C@H]4OC(=S)O[C@H]43)c(Cl)c2c1 [(CO)Ph OC(S)O],15
2,COc1ccc2nc3c(c(C)nn3[C@@H]3O[C@H](C(O)CC(=O)c4ccccc4)[C@H]4OC(=S)O[C@H]43)c(Cl)c2c1 (stereo partly shown) [Compound U],1.5
3,COc1ccc2nc3c(c(C)nn3[C@@H]3O[C@H](COC(=O)c4ccco4)[C@@H](OC(=O)c4ccco4)[C@H]3OC(=O)c3ccco3)c(Cl)c2c1 [O(CO)-2-Fu O(CO)-2-Fu O(CO)-2-Fu],10
4,COc1ccc2nc3c(c(C)nn3[C@H]3C=C[C@@H](COC(=O)c4ccccc4)O3)c(Cl)c2c1 [O(CO)Ph --],90
5,COc1ccc2nc3c(c(C)nn3[C@@H]3O[C@H](COC(=O)c4ccccc4)[C@@H](OC(=O)c4ccccc4)[C@H]3OC(=O)c3ccccc3)c(Cl)c2c1 [O(CO)Ph O(CO)Ph O(CO)Ph],10

# Same assay, conditions: table 3; 50 μM
row,Structure (SMILES),ras 21 assay (per cent inhibition) [%]
1,COc1ccc2nc3c(c(C)nn3[C@@H]3O[C@H](C(O)CC(=O)c4ccccc4)[C@@H](O)[C@H]3O)c(Cl)c2c1 (stereo partly shown),34
2,COc1ccc2nc3c(c(C)nn3-c3ccc(/C=C/C(=O)c4ccccc4)o3)c(Cl)c2c1,61
3,COc1ccc2nc3c(c(C)nn3[C@H]3C=C[C@@H](C(O)CC(=O)c4ccccc4)O3)c(Cl)c2c1 (stereo partly shown),48

# Same assay, conditions: table 3; 100 μM
row,Structure (SMILES),ras 21 assay (per cent inhibition) [%]
1,COc1ccc2nc3c(c(C)nn3[C@@H]3O[C@H](/C=C/C(=O)c4ccccc4)[C@H]4OC(C)(C)O[C@H]43)c(Cl)c2c1,53
2,COc1ccc2nc3c(c(C)nn3[C@H]3C=C[C@@H](CCC(=O)c4ccccc4)O3)c(Cl)c2c1,53
3,COc1ccc2nc3c(c(C)nn3[C@H]3CC[C@@H](COC(=O)c4ccccc4)O3)c(Cl)c2c1,38

# Same assay, conditions: table 3; concentration causing 50% inhibition of ^3H-GDP binding; read-out: ras 21 assay (IC50)
row,Structure (SMILES),IC50 [µM]
1,COc1ccc2nc3c(c(C)nn3[C@@H]3O[C@H](/C=C/C(=O)c4ccccc4)[C@@H](O)[C@H]3O)c(Cl)c2c1,10
2,COc1ccc2nc3c(c(C)nn3[C@H]3C=C[C@@H](/C=C/C(=O)c4ccccc4)O3)c(Cl)c2c1,35

# Same assay, conditions: table 4 (arabinose derivatives); 50 μM
row,Structure (SMILES),p21 ras assay (per cent inhibition) [%]
1,COc1ccc2nc3c(c(C)nn3[C@@H]3O[C@H](COCc4ccccc4)[C@@H](OCc4ccccc4)[C@@H]3OCc3ccccc3)c(Cl)c2c1 [CH2 OBn OBn OBn Cl],31
2,COc1ccc2nc3c(c(C)nn3[C@@H]3O[C@H](COC(=O)c4ccccc4)[C@@H](OC(=O)c4ccccc4)[C@@H]3OC(=O)c3ccccc3)c(Cl)c2c1 [CH2 OBz OBz OBz Cl],17
3,COc1ccc2nc3c(c(C)nn3[C@@H]3O[C@H](CO)[C@@H](O)[C@@H]3O)c(Cl)c2c1 [CH2 OH OH OH Cl],18

# Same assay, conditions: table 4 (arabinose derivatives); concentration causing 50% inhibition of ^3H-GDP binding; read-out: p21 ras assay (IC50)
row,Structure (SMILES),IC50 [µM]
1,COc1ccc2nc3c(cc2c1)c(C)nn3[C@@H]1O[C@H](COC(=O)c2ccccc2)[C@@H](OC(=O)c2ccccc2)[C@@H]1OC(=O)c1ccccc1 [CH2 OBz OBz OBz H],10
